{"source": "patent US20180153842A1", "about": "“AMINO ACID SUPPLEMENTATION FOR A HEALTHY MICROBIOTA ECOSYSTEM” (NESTEC S.A., priority 2003, published 2018)", "assay_type_in_all_cases": "in vivo, Sprague-Dawley rats", "conditions_in_all_cases": "5% DSS in drinking water for 9 days then 2% for 18 days, feces", "key": {"[1]": {"tested_on": "Lactobacilli", "assay": "fecal Lactobacilli count in rats", "experimental": "(§1) The animal experiment was conducted as follows: Male Sprague-Dawley rats (n=32) aged 10 months were randomly distributed into 4 experimental groups (described below). During an 8 days acclimatization period, rats had free access to tap water and received a control diet or diets supplemented in amino acids as described below. After this adaptation period, Dextran Sulfate Sodium (DSS)-treated rats received 5% DSS (w/v) in their drinking water for the first 9 days of the experiment and 2% DSS for the following 18 days to induce a chronic colitis.\n(§2) ii) Group “DSS”: rats were fed ad libitum with the control diet. They received DSS (free access) dissolved in their drinking water as previously described.\n(§3) At the end of the experiment, fecal samples were collected from animals with a sterile spoon into sterile tubes, frozen (liquid nitrogen) in 10% glycerol and then stored at −80° C. until analysis. The fecal microbiota was analyzed quantitatively for Enterobacteria, Bacteroides, Enterococci, Lactobacilli and Bifidobacteria species according to standard methods. Bacteria were counted using selective or semi-selective media. The counts were expressed as log (base 10) cfu/g feces with a lower detection limit of 3.30 log cfu/g and 5.50 log cfu/g of feces for Bacteroides.\n(§4) Data are expressed as mean±SEM. […]"}, "[2]": {"tested_on": "Bacteroides", "assay": "fecal Bacteroides count in rats", "experimental": "as §1, §2, §3, §4"}, "[3]": {"tested_on": "Enterococci", "assay": "fecal Enterococci count in rats", "experimental": "as §1, §2, §3, §4"}, "[4]": {"tested_on": "Enterobacteria", "assay": "fecal Enterobacteria count in rats", "experimental": "as §1, §2, §3, §4"}}, "data": [{"substance": "Dextran Sulfate Sodium [DSS]", "values": [{"measurement": "Lactobacilli counts compared to controls", "setting": "[1]", "value": "significantly decreased"}, {"measurement": "Bacteroides counts compared to controls", "setting": "[2]", "value": "increased"}, {"measurement": "Enterococci counts compared to controls", "setting": "[3]", "value": "significantly decreased"}, {"measurement": "Enterobacteria counts compared to controls", "setting": "[4]", "value": "significantly decreased"}]}]}
